# Active and inactive are the calls of the source. No cut-off for these calls is given here.
# Assays:
# Escherichia coli [1] = test: Inhibition of NDM1 in Escherichia coli isolate 8 assessed as potentiation of meropenem-induced antibacterial activity by measuring meropenem MIC after 24 hrs by broth microdilution assay (reference value: 320 ug/ml)
# Citrobacter freundii [2] = test: Inhibition of NDM1 in Citrobacter freundii clinical isolate 7 assessed as potentiation of meropenem-induced antibacterial activity by measuring meropenem MIC after 24 hrs by broth microdilution assay
# Enterobacter cloacae [3] = test: Inhibition of NDM1 in Enterobacter cloacae isolate 6 assessed as potentiation of meropenem-induced antibacterial activity by measuring meropenem MIC after 24 hrs by broth microdilution assay (reference value: 320 ug/ml)
# Enterobacter cloacae [4] = test: Inhibition of NDM1 in Enterobacter cloacae isolate 5 assessed as potentiation of meropenem-induced antibacterial activity by measuring meropenem MIC after 24 hrs by broth microdilution assay (reference value: 640 ug/ml)
# Enterobacter cloacae [5] = test: Inhibition of NDM1 in Enterobacter cloacae isolate 4 assessed as potentiation of meropenem-induced antibacterial activity by measuring meropenem MIC after 24 hrs by broth microdilution assay (reference value: 640 ug/ml)
# Escherichia coli [6] = test: Inhibition of NDM-7 in Escherichia coli isolate 2 assessed as potentiation of meropenem-induced antibacterial activity by measuring meropenem MIC after 24 hrs by broth microdilution assay (reference value: 640 ug/ml)
# [7] = system: Escherichia coli ATCC 25922; test: Inhibition of IMP-4 in Escherichia coli ATCC 25922 assessed as potentiation of meropenem-induced antibacterial activity by measuring diameter of inhibition zone measured after 18 hrs by agar disk diffusion method
# [8] = biological target: T1, Metallo-beta-lactamase NDM-4 (Escherichia coli) (UniProt H6WZS9); test: Inhibition of NDM4 in Escherichia coli ATCC 25922 assessed as potentiation of meropenem-induced antibacterial activity by measuring diameter of inhibition zone measured after 18 hrs by agar disk diffusion method
# T1 sequence (whole entry): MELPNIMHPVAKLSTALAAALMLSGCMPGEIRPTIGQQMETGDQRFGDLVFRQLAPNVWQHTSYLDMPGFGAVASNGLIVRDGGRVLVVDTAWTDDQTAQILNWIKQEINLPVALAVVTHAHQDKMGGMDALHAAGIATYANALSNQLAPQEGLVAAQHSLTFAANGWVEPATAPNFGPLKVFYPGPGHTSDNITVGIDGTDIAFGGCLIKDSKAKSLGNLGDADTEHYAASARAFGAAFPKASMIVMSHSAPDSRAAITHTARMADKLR
# [9] = biological target: T1, Metallo-beta-lactamase NDM-4 (Escherichia coli); test: Inhibition of NDM4 in Escherichia coli ATCC 25922 assessed as potentiation of meropenem-induced antibacterial activity by measuring zone of inhibition by agar disk diffusion method
# Escherichia coli [10] = test: Inhibition of IMP4 in Escherichia coli isolate 11 assessed as potentiation of meropenem-induced antibacterial activity by measuring meropenem MIC after 24 hrs by broth microdilution method (reference value: 32 ug/ml)
# Klebsiella pneumoniae [11] = test: Inhibition of IMP4 in Klebsiella pneumoniae isolate 13 assessed as potentiation of meropenem-induced antibacterial activity by measuring meropenem MIC after 24 hrs by broth microdilution method (reference value: 320 ug/ml)
# Enterobacter cloacae [12] = test: Inhibition of IMP4 in Enterobacter cloacae isolate 15 assessed as potentiation of meropenem-induced antibacterial activity by measuring meropenem MIC after 24 hrs by broth microdilution method (reference value: 32 ug/ml)
# Escherichia coli [13] = test: Inhibition of IMP4 in Escherichia coli isolate 18 assessed as potentiation of meropenem-induced antibacterial activity by measuring meropenem MIC after 24 hrs by broth microdilution method (reference value: 16 ug/ml)
# Proteus mirabilis [14] = test: Inhibition of IMP4 in Proteus mirabilis isolate 19 assessed as potentiation of meropenem-induced antibacterial activity by measuring meropenem MIC after 24 hrs by broth microdilution method (reference value: 320 ug/ml)
# Enterobacter cloacae [15] = test: Inhibition of IMP4 in Enterobacter cloacae clinical isolate 15 assessed as potentiation of meropenem-induced antibacterial activity by measuring reduction in meropenem MIC after 24 hrs by broth microdilution method (reference value: 32 ug/ml)
# [16] = biological target: T1, Metallo-beta-lactamase NDM-4 (Escherichia coli); test: Inhibition of NDM4 in Escherichia coli isolate 3 assessed as potentiation of meropenem-induced bactericidal activity by measuring bacterial killing in early exponential phase at 64 ug/ml incubated for 24 hrs followed by replating on agar plates for 16 to 18 hrs and measured up to 24 hrs by time kill assay; details: TDE = time-dependent effect
# [17] = biological target: T1, Metallo-beta-lactamase NDM-4 (Escherichia coli); test: Inhibition of NDM4 in Escherichia coli isolate 3 assessed as potentiation of meropenem-induced bactericidal activity at 4 times MIC incubated for 24 hrs followed by replating on agar plates for 16 to 18 hrs and measured up to 24 hrs by time kill assay
# HeLa = test: Cytotoxicity against human HeLa cells assessed as inhibition of growth after 24 hrs by CCK8 assay; type: cell-based
# [18] = Cytotoxicity against human HeLa cells assessed as inhibition of growth at 1000 ug/mL after 24 hrs by CCK8 assay relative to control; type: cell-based; details: read-out: GI
# [19] = Inhibition of Stenotrophomonas maltophilia NDM1 expressed in Escherichia coli BL21 (DE3) expressing measured after 15 minutes at interval of 60 secs
# [20] = biological target: T1, Metallo-beta-lactamase NDM-4 (Escherichia coli); test: Inhibition of Escherichia coli NDM4 assessed as potentiation of meropenem-induced antibacterial activity by measuring reduction in bacterial growth at 64 ug/mL after 24 hrs by broth microdilution method relative to control
# [21] = biological target: T1, Metallo-beta-lactamase NDM-4 (Escherichia coli); test: Inhibition of Escherichia coli NDM4 assessed as potentiation of meropenem-induced antibacterial activity by measuring bacterial growth rate at 64 ug/mL after 24 hrs in presence of ZnCl2 by broth microdilution method relative to control
# [22] = biological target: T1, Metallo-beta-lactamase NDM-4 (Escherichia coli); test: Inhibition of Escherichia coli isolate 3 NDM4 assessed as potentiation of meropenem-induced antibacterial activity by measuring reduction in meropenem MIC after 24 hrs by broth microdilution method relative to meropenem alone
# Escherichia coli [23] = test: Effect on growth of Escherichia coli isolate 3 after 24 hrs by broth microdilution assay; type: organism-based
# Enterobacter cloacae [24] = test: Effect on growth of Enterobacter cloacae isolate 4 after 24 hrs by broth microdilution assay; type: organism-based
# Enterobacter cloacae [25] = test: Effect on growth of Enterobacter cloacae isolate 6 after 24 hrs by broth microdilution assay; type: organism-based
# Citrobacter freundii [26] = test: Effect on growth of Citrobacter freundii isolate 7 after 24 hrs by broth microdilution assay; type: organism-based
# Escherichia coli [27] = test: Effect on growth of Escherichia coli isolate 8 after 24 hrs by broth microdilution assay; type: organism-based
# Escherichia coli [28] = test: Effect on growth of Escherichia coli isolate 9 after 24 hrs by broth microdilution assay; type: organism-based
# Escherichia coli [29] = test: Effect on growth of Escherichia coli isolate 11 after 24 hrs by broth microdilution method; type: organism-based
# Klebsiella pneumoniae [30] = test: Effect on growth of Klebsiella pneumoniae isolate 12 after 24 hrs by broth microdilution method; type: organism-based
# Enterobacter cloacae [31] = test: Effect on growth of Enterobacter cloacae isolate 15 after 24 hrs by broth microdilution method; type: organism-based
# Enterobacter cloacae [32] = test: Effect on growth of Enterobacter cloacae isolate 16 after 24 hrs by broth microdilution method; type: organism-based
# Klebsiella pneumoniae [33] = test: Effect on growth of Klebsiella pneumoniae isolate 17 after 24 hrs by broth microdilution method; type: organism-based
# Proteus mirabilis [34] = test: Effect on growth of Proteus mirabilis isolate 19 after 24 hrs by broth microdilution method; type: organism-based
MIC (Escherichia coli [1]),MIC (Citrobacter freundii [2]),MIC (Enterobacter cloacae [3]),MIC (Enterobacter cloacae [4]),MIC (Enterobacter cloacae [5]),MIC (Escherichia coli [6]),inhibition zone (IZ) [7],inhibition zone (IZ) [8],inhibition zone (IZ) [9],MIC (Escherichia coli [10]),MIC (Klebsiella pneumoniae [11]),MIC (Enterobacter cloacae [12]),MIC (Escherichia coli [13]),MIC (Proteus mirabilis [14]),fold change (FC) (Enterobacter cloacae [15]),IC50 [19],Structure (SMILES),inhibition [16],inhibition [17],IC50 (HeLa),"inhibition at 24 h, 1000 ug/mL [18]",other results
0.0625 µg/mL,1 µg/mL,2 µg/mL,0.5 µg/mL,0.0625 µg/mL,0.0625 µg/mL,2 to 5 mm,2 to 5 mm,21.4 mm,4 µg/mL,4 µg/mL,0.5 µg/mL,2 µg/mL,2 µg/mL,64,0.04 µM,COc1ccc(CN(CCN(Cc2ccc(OC)cc2)Cc2cccc(C(=O)O)n2)Cc2cccc(C(=O)O)n2)cc1,Tde,Active,> 1000 µg/mL,< 50%,inhibition [20]: Active; inhibition [21]: 81%; fold change (FC) [22]: 41000; MIC (Escherichia coli [23]): 64 µg/mL; MIC (Enterobacter cloacae [24]): 64 µg/mL; MIC (Enterobacter cloacae [25]): 32 µg/mL; MIC (Citrobacter freundii [26]): 32 µg/mL; MIC (Escherichia coli [27]): 64 µg/mL; MIC (Escherichia coli [28]): 32 µg/mL; MIC (Escherichia coli [29]): 64 µg/mL; MIC (Klebsiella pneumoniae [30]): 32 µg/mL; MIC (Enterobacter cloacae [31]): 32 µg/mL; MIC (Enterobacter cloacae [32]): 32 µg/mL; MIC (Klebsiella pneumoniae [33]): 32 µg/mL; MIC (Proteus mirabilis [34]): 32 µg/mL
0.0625 µg/mL,1 µg/mL,2 µg/mL,0.5 µg/mL,0.25 µg/mL,0.125 µg/mL,2 to 5 mm,2 to 5 mm,20.2 mm,4 µg/mL,4 µg/mL,0.5 µg/mL,2 µg/mL,2 µg/mL,64,0.17 µM,O=C(O)c1cccc(CNCCNCc2cccc(C(=O)O)n2)n1,Tde,Active,> 1000 µg/mL,< 50%,inhibition [20]: Active; inhibition [21]: 81%; fold change (FC) [22]: 41000; MIC (Escherichia coli [23]): 32 µg/mL; MIC (Enterobacter cloacae [24]): 64 µg/mL; MIC (Enterobacter cloacae [25]): 32 µg/mL; MIC (Citrobacter freundii [26]): 32 µg/mL; MIC (Escherichia coli [27]): 64 µg/mL; MIC (Escherichia coli [28]): 32 µg/mL; MIC (Escherichia coli [29]): 64 µg/mL; MIC (Klebsiella pneumoniae [30]): 64 µg/mL; MIC (Enterobacter cloacae [31]): 32 µg/mL; MIC (Enterobacter cloacae [32]): 32 µg/mL; MIC (Klebsiella pneumoniae [33]): 32 µg/mL; MIC (Proteus mirabilis [34]): 32 µg/mL
